The results in this text go back to paper PMC8348901, “Novel N-Substituted 3-Aryl-4-(diethoxyphosphoryl)azetidin-2-ones as Antibiotic Enhancers and Antiviral Agents in Search for a Successful Treatment of Complex Infections” (International Journal of Molecular Sciences, 2021).

For data set [1], the system named is influenza A virus H1N1 subtype. The data set can be described thus: Antiviral assay, influenza A virus H1N1 subtype in MDCK cells. The class given is cell-based, influenza A virus H1N1 (A/PR/8).
The test system of another data set is MRSA HEMSA 5. The data set can be described thus: Oxacillin MIC reduction (adjuvant) microdilution assay. It is filed as cell-based, Staphylococcus aureus. To be noted: MIC(OXA)/MIC(OXA+Cpd), compound 0.5 mM, adjuvant activity if A ≥ 4. Here is the method: (§1) Since the lack of direct antibacterial activity of the obtained azetidinones was observed, all isomers trans and cis were investigated on their “adjuvant” properties, i.e., an ability to enhance the effectiveness of antibiotics against S. aureus strains. Thus, the compounds were tested in combination with the known β-lactam antibiotic, oxacillin, in the microdilution assays. The ability of the tested azetidinones to reduce minimum inhibitory concentration (MIC) of oxacillin against both, the referenced and the resistant S. aureus strains, was assessed.
(§2) The in-vitro antibacterial property and the capacity of tested compounds to increase the efficacy of antibiotics were evaluated in two Staphylococcus aureus strains, i.e., the reference clonal complex 5 (CC5) methicillin-susceptible (MSSA) strain ATCC 25923, and the methicillin-resistant (MRSA) extensively drug-resistant (XDR) clinical isolate HEMSA-5 [46].
(§3) In order to assess the increase of antibiotic efficacy, the assays were conducted by determining if/to what extent the investigated compounds reduce MICs of oxacillin by means of a serial dilution broth microplate method, in accordance with the CLSI requirements. The concentrations of compounds used in the MICs reduction assay were no greater than 1/4 of their respective MICs to ensure that cell viability was not affected by the intrinsic antibacterial activity of the molecules. Serial two-fold dilutions of oxacillin (Sigma-Aldrich; St. Louis, MI, USA, cat. no. 28221), were prepared in […] of the Mueller–Hinton broth (Merck; Darmstadt, Germany, cat. no. 1102930500). Suitable concentrations of the compounds (total volume […]) were then added. Bacterial suspensions were diluted to OD ¼ 0.5. The resulting suspensions were then diluted 1:100 and added in the volume of […] into the oxacillin serial dilutions with the compounds. The results were read after 20-h incubation at 37 °C.
(§4) The ability of compounds to improve antibiotic efficacy was expressed as the activity gain [A] parameter calculated according to the formula given in Figure 10.
(§5) Figure 10 Activity gain. MICAnt corresponds to the MIC of oxacillin in the absence of a compound tested and MICAnt + Comp refers to the MIC of oxacillin paired with a compound tested.
A general note: In broth dilution the organism is exposed to a series of concentrations in liquid medium.

The next data set deals with S. aureus ATCC 25923. The description is as above. The class given is cell-based, Staphylococcus aureus. Conditions: MIC(OXA)/MIC(OXA+Cpd), compound 0.5 mM, adjuvant activity if A ≥ 4. The procedure: as §1, §2, §3, §4, §5
Data set [2] relates to DND-41 (acute lymphoblastic leukemia). The data set can be described thus: Cytostatic activity (cell proliferation). Conditions: DND41. The class given is cell-based. Here is the method:
(§6) The 50% cytostatic inhibitory concentration (IC50) causing a 50% decrease in cell proliferation was determined for all obtained compounds toward 9 cancerous cell lines, i.e.,: Capan-1 (pancreatic adenocarcinoma), Hap1 (chronic myeloid leukemia), HCT-116 (colorectal carcinoma), NCI-H460 (lung carcinoma), DND-41 (acute lymphoblastic leukemia), HL-60 (acute myeloid leukemia), K-562 (chronic myeloid leukemia), MM.1S (multiple myeloma), Z-138 non-Hodgkin lymphoma), as well as normal retina (non-cancerous) cells (hTERT RPE-1). Docetaxel, etoposide and stauroporine were used as the reference compounds.
(§7) All assays were performed in 96-well microtiter plates. To each well was added (5–7.5) × 10^4 tumor cells and a given amount of the tested compound. The cells were allowed to proliferate at 37 °C in a humidified, CO2-controlled atmosphere. At the end of the incubation period, the cells were counted in a Coulter counter. The IC50 (50% inhibitory concentration) was defined as the concentration of the compound that inhibited cell proliferation by 50%.

For data set [3], the system named is HCT-116 (colorectal carcinoma). The data set can be described thus: Cytostatic activity (cell proliferation). The class given is cell-based. Conditions: Homo sapiens, HCT-116. Here is the method: as §6, §7
Data set [4] concerns Hap1 (chronic myeloid leukemia). The data set can be described thus: Cytostatic activity (cell proliferation). The class given is cell-based. Conditions: Homo sapiens, HAP1. Here is the method: as §6, §7
Data set [5] relates to NCI-H460 (lung carcinoma). The data set can be described thus: Cytostatic activity (cell proliferation). It is filed as cell-based. Conditions: Homo sapiens, NCI-H460. Here is the method: as §6, §7
For data set [6], the system named is hTERT RPE-1 normal retina (non-cancerous) cells. The data set can be described thus: Cytostatic activity (cell proliferation). It is filed as cell-based. Conditions: hTERT-RPE1. Here is the method: as §6, §7
Data set [7] has as its system Capan-1 (pancreatic adenocarcinoma). The data set can be described thus: Cytostatic activity (cell proliferation). It is filed as cell-based. To be noted: Homo sapiens, CAPAN-1. Here is the method: The 50% cytostatic inhibitory concentration (IC50) causing a 50% decrease in cell proliferation was determined for all obtained compounds toward 9 cancerous cell lines, i.e.,: Capan-1 (pancreatic adenocarcinoma), Hap1 (chronic myeloid leukemia), HCT-116 (colorectal carcinoma), NCI-H460 (lung carcinoma), DND-41 (acute lymphoblastic leukemia), HL-60 (acute myeloid leukemia), K-562 (chronic myeloid leukemia), MM.1S (multiple myeloma), Z-138 non-Hodgkin lymphoma), as well as normal retina (non-cancerous) cells (hTERT RPE-1).
All assays were performed in 96-well microtiter plates. To each well was added (5–7.5) × 10^4 tumor cells and a given amount of the tested compound. The cells were allowed to proliferate at 37 °C in a humidified, CO2-controlled atmosphere. At the end of the incubation period, the cells were counted in a Coulter counter.

Data set [8] has as its system Madin Darby canine kidney cells (MDCK). To be noted: microscopically detectable alteration of cell morphology.
The next data set is described as follows: in vitro. Conditions: dog.
A further data set relates to human coronavirus (229E). The data set can be described thus: microbe, parasite or virus in culture. It is filed as cell-based.
In data set [9] the test system is cytomegalovirus AD-169 strain. The data set can be described thus: Antiviral CPE reduction assay, cytomegalovirus AD-169 strain in HEL cells. The class given is cell-based, human cytomegalovirus (HCMV). Conditions: Human betaherpesvirus 5, AD169.
Data set [10] concerns human embryonic lung (HEL) cells. Conditions: uninfected host cells of the coronavirus/cytomegalovirus assays.

Read-outs that look alike come from different tables or passages of the source.

The term EC50 denotes the concentration needed to bring the measured effect to its halfway point. A word on the IC50: it is the midpoint of a concentration-inhibition curve. Read a low IC50 as greater potency. In the case of `CCOP(=O)(OCC)[C@@H]1[C@H](c2ccc(F)c(C)c2)C(=O)N1Cc1ccccc1` (relative stereo) [cis-11f, cis-N-benzyl-3-(4-fluoro-3-methylphenyl)-4-(diethoxyphosphoryl)azetidin-2-one], the EC50 turned out to be 12 µM in data set [1] (H1N1, MDCK cells, visual CPE score, read-out: EC50 by visual CPE score, influenza A virus H1N1) and 8.3 µM in data set [1] (H1N1, MDCK, read-out: EC50 by TMS score, influenza A virus H1N1). Further, the “Activity Gain [A]” value in the data set on MRSA HEMSA 5 is reported as 1–2; in the data set with S. aureus ATCC 25923, less than 0.5. Moreover, the IC50 in [2] was greater than 100 µM; in [3] it was greater than 100 µM; in data set [4], greater than 100 µM; in data set [5] it was 53.6 µM; in data set [6], greater than 100 µM; in data set [7], 38.4 µM. The “MCC (minimum cytotoxic concentration)” value in [8] is given as greater than 100 µM. This molecule also had a CC50 in “in vitro” of 39.9 µM.
On to `CCOP(=O)(OCC)[C@H]1[C@H](c2ccc(F)c(C)c2)C(=O)N1Cc1ccccc1` (relative stereo) [trans-11f, trans-N-benzyl-3-(4-fluoro-3-methylphenyl)-4-(diethoxyphosphoryl)azetidin-2-one], for which the “Activity against human coronavirus (229E) relative to ribavirin” value in the data set on human coronavirus (229E) is on record as roughly 2.5 fold. For the same molecule, the EC50 was 45 µM with human coronavirus (229E) (Human coronavirus 229E, HEL cells, reduction of virus-induced cytopathogenicity by 50%) and 54.7 µM in data set [9]. Also, the “Activity Gain [A]” value in the data set on MRSA HEMSA 5 is on record as 16; with S. aureus ATCC 25923 it was 0.5. Also, the half-inhibitory concentration (IC50) in data set [2] stood at 65.8 µM; in [3] it was 35.3 µM; in data set [4] it was 46.5 µM; in [5], 37 µM; in data set [6], 33.5 µM; in data set [7] it was 34.8 µM. The “Effect on normal cell morphology” value in data set [10] is “did not affect normal cell morphology”.
